Consider 25 molecules from US7419969B2 (Bristol-Myers Squibb Company, priority 2004, dated 2008).

Molecules are shown by their SMILES.

One data set has as its target T1, HIV-integrase (Human immunodeficiency virus type 1 group M subtype B, UniProt P04585).
T1 construct: Recombinant integrase (0.26 ng) was incubated with the beads
Put plainly: in-vitro activity against HIV-integrase (HIV Integrase Inhibition, SPA bead assay). The class given is biochemical. The note with it: recombinant integrase, activity class. In short, it runs like this:
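Recombinant integrase (0.26 ng) pre-bound for 90 min at 37 °C to biotinylated substrate DNA on streptavidin SPA beads, then washed. Inhibitors added with 33P-labelled target DNA; reaction stopped with 10 mM EDTA. Scintillation CPM taken as integration signal.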

As for `O=C(NCc1ccc(F)cc1-n1ccnn1)c1nc2n(c(=O)c1O)CCCOC21CCOCC1` [Example 122, Spiro[4H-pyran-4,10′(4′H)-[6H]pyrimido[2,1-c][1,4]oxazepine]-2′-carboxamide, N-[[4-fluoro-2-(1H-1,2,3-triazol-1-yl)phenyl]methyl]-2,3,5,6,7′,8′-hexahydro-3′-hydroxy-4′-oxo-], the melting point is 239 °C (dec.). In addition, at HIV-integrase (Table 1a), the IC50 lay in the range of 1 to 10 nM.
Take `O=C(NCc1ccc(F)cc1-n1cncn1)c1nc2n(c(=O)c1O)CCCOC21CCOCC1` [Example 118, Spiro[4H-pyran-4,10′(4′H)-[6H]pyrimido[2,1-c][1,4]oxazepine]-2′-carboxamide, N-[[4-fluoro-2-(1H-1,2,4-triazol-1-yl)phenyl]methyl]-2,3,5,6,7′,8′-hexahydro-3′-hydroxy-4′-oxo-]: the melting point was 247 °C (dec.). Moreover, the half-maximal inhibitory concentration (IC50) at HIV-integrase (Table 1a) fell in the range of 1 to 10 nM.
As for `CNC(=O)c1cc(F)ccc1CNC(=O)c1nc2n(c(=O)c1O)CCCOC21CCOCC1` [Example 115, Spiro[4H-pyran-4,10′(4′H)-[6H]pyrimido[2,1-c][1,4]oxazepine]-2′-carboxamide, N-[[4-fluoro-2-[(methylamino)carbonyl]phenyl]methyl]-2,3,5,6,7′,8′-hexahydro-3′-hydroxy-4′-oxo-], the melting point was 211 °C (dec.). Moreover, at HIV-integrase (Table 1a), the IC50 is 1 to 10 nM.
For `Cc1ncn(-c2ccccc2CNC(=O)c2nc3n(c(=O)c2O)CCCOC32CCOCC2)n1` [Example 121, Spiro[4H-pyran-4,10′(4′H)-[6H]pyrimido[2,1-c][1,4]oxazepine]-2′-carboxamide, 2,3,5,6,7,8′-hexahydro-3′-hydroxy-N-[[2-(3-methyl-1H-1,2,4-triazol-1-yl)phenyl]methyl]-4′-oxo-], in that order: 247 °C (dec.) and 10 to 100 nM.
Molecule `Cc1ncnn1-c1cc(F)ccc1CNC(=O)c1nc2n(c(=O)c1O)CCCOC21CCOCC1` [Example 120, Spiro[4H-pyran-4,10′(4′H)-[6H]pyrimido[2,1-c][1,4]oxazepine]-2′-carboxamide, N-[[4-fluoro-2-(5-methyl-1H-1,2,4-triazol-1-yl)phenyl]methyl]-2,3,5,6,7′,8′-hexahydro-3′-hydroxy-4′-oxo-] came in with a melting point of 204 °C. For the same molecule, the IC50 on HIV-integrase (Table 1a) fell in the range of 10 to 100 nM.
As for `CS(=O)(=O)c1cc(F)ccc1CNC(=O)c1nc2n(c(=O)c1O)CCCOC21CCOCC1` [Example 116, Spiro[4H-pyran-4,10′(4′H)-[6H]pyrimido[2,1-c][1,4]oxazepine]-2′-carboxamide, N-[[4-fluoro-2-(methylsulfonyl)phenyl]methyl]-2,3,5,6,7′,8′-hexahydro-3′-hydroxy-4′-oxo-], the melting point is 257 °C (dec.). Further, at HIV-integrase (Table 1a), the IC50 is 10 to 100 nM.
As for `COP(=O)(OC)c1cc(F)ccc1CNC(=O)c1nc2n(c(=O)c1O)CCCOC21CCOCC1` [Example 117, Phosphonic acid, [5-fluoro-2-[[[(2,3,5,6,7′,8′-hexahydro-3′-hydroxy-4′-oxospiro[4H-pyran-4,10′(4′H) -[6H]pyrimido[2,1-c][1,4]oxazepin]-2′-yl)carbonyl]amino]methyl]phenyl]-, dimethyl ester], the melting point was 234 °C (dec.). The IC50 on HIV-integrase (Table 1a) lay within 10 to 100 nM.
Regarding `O=C(NCc1cccc(F)c1)c1nc2n(c(=O)c1O)CCOC21CCCC1` [Example 26, N-[(3-fluorophenyl)methyl]-6′,7′-dihydro-3 ′-hydroxy-4′-oxo-spiro[cyclopentane-1,9′(4′H)-pyrimido[2,1-c][1,4]oxazine]-2′-carboxamide], the IC50 on HIV-integrase (Table 1) lay in the range of 10 to 100 nM.
Turning to `Cc1ncnn1-c1cc(F)ccc1CNC(=O)c1nc2n(c(=O)c1O)CCN(C)C21CCCC1` [Example 94, Spiro[cyclopentane-1,9′(6′H)-[4H]pyrazino[1,2-a]pyrimidine]-2′-carboxamide, N-[[4-fluoro-2-(5-methyl-1H-1,2,4-triazol-1-yl)phenyl]methyl]-7′,8′-dihydro-3′-hydroxy-8′-methyl-4′-oxo-], the IC50 at HIV-integrase (Table 1a) was 10 to 100 nM.
On to `CNC(=O)c1cc(F)ccc1CNC(=O)c1nc2n(c(=O)c1O)CCOC21CCC1` [Example 91, N-[[4-fluoro-2-[(methylamino)carbonyl]phenyl]methyl]-6′,7′-dihydro-3′-hydroxy-4′-oxo-spiro[cyclobutane-1,9′(4′H)-pyrimido[2,1-c][1,4]oxazine]-2′-carboxamide], for which the IC50 on HIV-integrase (Table 1) was 1 to 10 nM.
As for `Cc1ncnn1-c1cc(F)ccc1CNC(=O)c1nc2n(c(=O)c1O)CCN(C)C21CCCCC1` [Example 97, Spiro[cyclohexane-1,9′(6′H)-[4H]pyrazino[1,2-a]pyrimidine]-2′-carboxamide, N-[[4-fluoro-2-(5-methyl-1H-1,2,4-triazol-1-yl)phenyl]methyl]-7′,8′-dihydro-3′-hydroxy-8′-methyl-4′-oxo-], the IC50 at HIV-integrase (Table 1a) fell in the range of 10 to 100 nM.
Still for that read-out and setting: to `Cc1nnn(-c2cc(F)ccc2CNC(=O)c2nc3n(c(=O)c2O)CCOC32CCC2)c1C` [Example 102, Spiro[cyclobutane-1,9′(4′H)-pyrimido[2,1-c][1,4]oxazine]-2′-carboxamide, N-[[2-(4,5-dimethyl-1H-1,2,3-triazol-1-yl)-4-fluorophenyl]methyl]-6′,7′-dihydro-3′-hydroxy-4′-oxo-] belongs 10 to 100 nM; to `O=C(NCc1ccccc1N1CCC1=O)c1nc2n(c(=O)c1O)CCOC21CCC1` [Example 125, Spiro[cyclobutane-1,9′(4′H)-pyrimido[2,1-c][1,4]oxazine]-2′-carboxamide, 6′,7′-dihydro-3′-hydroxy-4′-oxo-N-[[2-(2-oxo-1-azetidinyl)phenyl]methyl]-], 1 to 10 nM.
For `O=C(NCc1ccc(F)cc1)c1nc2n(c(=O)c1O)CCC21CCCC1` [Example 84, N-[(4-fluorophenyl)methyl]-6′,7′-dihydro-3′-hydroxy-4′-oxo-spiro[cyclopentane-1,8′(4′H)-pyrrole[1,2-α]pyrimidine]-2′-carboxamide], the half-inhibitory concentration (IC50) on HIV-integrase (Table 1) fell in the range of 1 to 10 nM.
With `O=C(NCc1ccc(F)cc1-n1ccnc1)c1nc2n(c(=O)c1O)CCCC21CCCC1` [Example 7, N-[[4-fluoro-2-(1H-imidazol-1-yl)phenyl]methyl]-7′,8′-dihydro-3′-hydroxy-4′-oxo-spiro[cyclopentane-1,9′(6′H)-[4H]pyrido[1,2-α]pyrimidine]-2′-carboxamide], the IC50 on HIV-integrase (Table 1) lay within 1 to 10 nM.
Consider `Cc1ncnn1-c1cc(F)ccc1CNC(=O)c1nc2n(c(=O)c1O)CCOC21CCCC1` [Example 32, N-[[4-fluoro-2-(5-methyl-1H-1,2,4-triazol-1-yl)phenyl]methyl]-6′,7′-dihydro-3′-hydroxy-4′-oxo-spiro[cyclopentane-1,9′(4′H)-pyrimido[2,1-c][1,4]oxazine]-2′-carboxamide], for which the IC50 on HIV-integrase (Table 1) was in the range of 1 to 10 nM.
For `Cc1cc(CNC(=O)c2nc3n(c(=O)c2O)CCCC32CCC2)ccc1F` [Example 72, N-[(4-fluoro-3-methylphenyl)methyl]-7′,8′-dihydro-3′-hydroxy-4′-oxo-spiro[cyclobutane-1,9′(6′H)-[4H]pyrido[1,2-α]pyrimidine]-2′-carboxamide], the IC50 on HIV-integrase (Table 1) lay within 1 to 10 nM.
On to `Cc1ncn(-c2cc(F)ccc2CNC(=O)c2nc3n(c(=O)c2O)CCCOC32CCOCC2)n1` [Example 119, Spiro[4H-pyran-4,10′(4′H)-[6H]pyrimido[2,1-c][1,4]oxazepine]-2′-carboxamide, N-[[4-fluoro-2-(3-methyl-1H-1,2,4-triazol-1-yl)phenyl]methyl]-2,3,5,6,7′,8′-hexahydro-3′-hydroxy-4′-oxo-], for which the melting point is 240 °C (dec.). The IC50 on HIV-integrase (Table 1a) lay within 1 to 10 nM.
Turning to `CN(C)S(=O)(=O)c1cc(F)ccc1CNC(=O)c1nc2n(c(=O)c1O)CCOC21CCCC1` [Example 28, N-[[(2-(dimethylamino)sulfonyl]-4-fluorophenyl)methyl]-6′,7′-dihydro-3′-hydroxy-4′-oxo-spiro[cyclopentane-1,9′(4′H)-pyrimido[2,1-c][1,4]oxazine]-2′-carboxamide], the IC50 at HIV-integrase (Table 1) is 1 to 10 nM.
Consider `O=C(NCc1ccc(Cl)c(Cl)c1)c1nc2n(c(=O)c1O)CCCC21CCC1` [Example 70, N-[(3,4-dichlorophenyl)methyl]-7′,8′-dihydro-3′-hydroxy-4′-oxo-spiro[cyclobutane-1,9′(6′H)-[4H]pyrido[1,2-α]pyrimidine]-2′-carboxamide], for which the IC50 on HIV-integrase (Table 1) was in the range of 1 to 10 nM.
`O=C(NCc1ccc(F)cc1-n1cncn1)c1nc2n(c(=O)c1O)CCCC21CCC1` [Example 78, N-[[4-fluoro-2-(1H-1,2,4-triazol-1-yl)phenyl]methyl]-7′,8′-dihydro-3′-hydroxy-4′-oxo-spiro[cyclobutane-1,9′(6^1′H)-[4H]pyrido[1,2-α]pyrimidine]-2′-carboxamide]: the IC50 at HIV-integrase (Table 1) is 1 to 10 nM.
Regarding `COc1ccc(CNC(=O)c2nc3n(c(=O)c2O)CCOC32CCOCC2)c(OC)c1` [Example 46, N-[(2,4-dimethoxyphenyl)methyl]-2,3,5,6,6′,7′-hexahydro-3′-hydroxy-4′-oxo-spiro[4H-pyran-4,9′(4′H)-pyrimido[2,1-c][1,4]oxazine]-2′-carboxamide], at HIV-integrase (Table 1), the IC50 was 10 to 100 nM.
With `O=C(NCc1ccc(F)cc1N1CCC1=O)c1nc2n(c(=O)c1O)CCOC21CCC1` [Example 106, Spiro[cyclobutane-1,9′(4′H)-pyrimido[2,1-c][1,4]oxazine]-2′-carboxamide, N-[[4-fluoro-2-(2-oxo-1-azetidinyl)phenyl]methyl]-6′,7′-dihydro-3′-hydroxy-4′-oxo-], the IC50 at HIV-integrase (Table 1a) was 1 to 10 nM.
On to `COc1ccc(CNC(=O)c2nc3n(c(=O)c2O)CCOC32CCCC2)c(OC)c1` [Example 25, N-[(2,4-dimethoxyphenyl)methyl]-6′,7′-dihydro-3′-hydroxy-4′-oxo-spiro[cyclopentane-1,9′(4′H)-pyrimido[2,1-c][1,4]oxazine]-2′-carboxamide], for which the IC50 on HIV-integrase (Table 1) was 10 to 100 nM.
On to `O=C(NCc1ccc(F)cc1-n1nccn1)c1nc2n(c(=O)c1O)CCCC21CCCC1` [Example 6, N-[[4-fluoro-2-(2H-1,2,3-triazol-2-yl)phenyl]methyl]-7′,8′-dihydro-3′-hydroxy-4′-oxo-spiro[cyclopentane-1,9′(6′H)-[4H]pyrido[1,2-α]pyrimidine]-2′-carboxamide], for which the IC50 on HIV-integrase (Table 1) was in the range of 1 to 10 nM.

A word on the IC50: it is the concentration that inhibits the measured activity by half. The melting point is the temperature of the solid-liquid transition.
